{"source": "patent US20220333153A1", "about": "“ULTRASENSITIVE ELECTROCHEMICAL BIOSENSORS” (MOLECULAR WAREHOUSE, LTD., priority 2016, published 2022)", "molecules": {"B1": {"name": "IL18: cytokine analyte of the dissociative biosensor (protein)", "chain": "GYFGKLESKLSVIRNLNDQVLFIDQGNRPLFEDMTDSDSRDNAPRTIFIISMYKDSQPRGMAVTISVKSEKISTLSSENKIISFKEMNPPDNIKDTKSDIIFFQRSVPGHDNKMQFESSSYEGYFLASEKERDLFKLILKKEDELGDRSIMFTVQNEDG", "modifications": "Interleukin-18", "notes": "cytokine analyte of the dissociative biosensor"}, "B2": {"name": "affinity clamp: circularly permutated Erbin PDZ domain linked to engineered fibronectin type III (FN3) (protein)", "chain": "EDAPESPELGFSISGGVGGRGNPFRPDDDGIFVTRVQPEGPASKLLQPGDKIIQANGYSFINIEHGQAVSLLKTFQNTVELIIVREVGNGAKQEIRVRVEKDGGSGGVSSVPTNLEVVAATPTSLLISWDAYRELPVSYYRITYGETGGNSPVQEFTVPGSKSTATISGLKPGVDYTITVYAHYNYHYYSSPISINYRGPG", "modifications": "ePDZ domain"}}, "key": {"[1]": {"experiment": "GDH enzymatic activity of the chimeric proteins themselves", "format": "biochemical", "protocol": "(§1) The GDH enzyme assay was performed as described by Yu et al.^20 Briefly, the 1.5-mL assay system consisted of 20 mM glucose, 0.6 mM phenazine methosulfate, 0.06 mM […], 10 mM MOPS (pH 7.0), and corresponding concentration of CaCl2 and enzyme. The enzymatic assay was performed at 25° C. by monitoring the reduction in the absorbance of […] at 600 nm.\nWe conjectured that dislocation of either of these residues will impact the catalysis and if carried out in a reversible fashion could utilized for controlling enzymes activity. To test this idea we inserted calmodulin (CaM) domain into GDH at the position 330 and produced the resulting CaM-GDH chimeric protein (SEQ ID NO: 10) in recombinant form. […] The activity of fully activated fusion represented 50% of activity of the wild-type protein. […] We therefore concluded that we successfully constructed a peptide regulated GDH biosensor module.\nWe next decided to test if the developed allosteric module can be used to construct a generic biosensor architecture. To this end we fused the developed CaM-GDH chimera C-terminally with rapamycin-binding FKBP domain (SEQ ID NO: 11) and produced the protein in recombinant form. […] We then constructed a fusion between FKBP binding partner FRB and CaM-BP that would associate with the former reporter molecule in the rapamycin dependent fashion. […]"}, "[2]": {"test_system": "affinity clamp-GDH chimera (SEQ ID NO: 25)", "experiment": "OFF switch: inhibition of GDH activity of affinity clamp-GDH chimera by PDZ peptides", "format": "biochemical", "details": "10 nM chimera; 1 μM strong or 2 μM weak peptide ligand", "from_the_text": "(§2) FIG. 5. Development and applications of an OFF switch biosensor based on GDH. […] (C) as in B but using the biosensor with the optimized linkers between the affinity clamp and the GDH, titrated with the increasing concentrations of the strong ligand peptide. (D) A dissociative biosensor architecture based on the developed affinity clamp-GDH biosensor. The star denotes the ligand either genetically fused or conjugated to the regulatory domain. (E) Exemplification of the design shown in D with a biosensor for IL18: the ligand is IL18 and the binder is IL18 binding protein. […] (G) As in D but using a binder that competitively associates with the receptor domain and is dislodged by the binding of the ligand.\nas §1\nSo far all presented biosensor architectures were designed to increase the GDH activity upon association with the analyte. While this is a common strategy it creates potential problems when binding of two protein modules to a single small molecule is required. […]"}, "[3]": {"test_system": "affinity clamp-GDH IL18 binding protein chimera (SEQ ID NO: 37) with IL18-affinity-clamp ligand fusion (SEQ ID NO: 38)", "experiment": "IL18 dissociative biosensor, GDH activity", "format": "biochemical", "details": "10 nM SEQ ID NO: 37, 50 nM SEQ ID NO: 38; 0 to 2.5 μM IL18", "from_the_text": "as §2\nThe developed GDH —based OFF switch can be converted into biosensors of small molecules and biological polymers such as proteins and nucleic acids by fusing it to the appropriate binding domains (FIG. 5D) FIG. 5E depicts an IL18 biosensor that was generated incorporating a GDH-based OFF switch based on a fusion with IL18 binding protein, where the ligand is IL18 and the binder IL18 binding protein."}, "[4]": {"biological_target": "PDZ domain binding peptide", "details": "read-out: affinity for PDZ domain binding peptide; cited from earlier work"}}, "data": [{"molecule": "CaM-GDH chimeric protein: PQQ-GDH with calmodulin domain inserted at position 330, recombinant", "values": [{"measurement": "GDH activity of the protein without activating ligand", "setting": "[1]; absence of CaM-BP / activating ligand", "result": "some GDH activity"}, {"measurement": "activity of fully activated fusion as share of activity of the wild-type protein", "setting": "[1]; fully activated by CaM-BP", "result": 50, "unit": "%"}]}, {"molecule": "RGSIDTWV (PDZ peptide (ePDZ ligand, high affinity)) [SEQ ID NO: 27]", "values": [{"measurement": "inhibition of GDH activity of affinity clamp-GDH chimera", "setting": "[2]", "result": "stronger inhibition of GDH activity than the weaker ligand"}]}, {"molecule": "B1", "values": [{"measurement": "detection by IL18 biosensor (GDH activity)", "setting": "[3]", "result": "dose-dependent detection"}]}, {"molecule": "B2", "values": [{"measurement": "Kd", "setting": "[4]", "result": "< 1", "unit": "nM"}]}]}
